Values of other authors, collected in patent US20060147533A1, “Antimicrobial biomaterial for blood bags” (priority 2004, published 2006).

Conditions: humans; recoveries reported following ingestion of higher doses

For `O=[N+]([O-])[O-].[Ag+]` [silver nitrate], the estimated fatal dose is given as 10 grams.
